Measurements taken from US12331264B2, “Lipid nanoparticles for delivery of nucleic acids and methods of use thereof” (Akagera Medicines, Inc., priority 2020, dated 2025).

Key:
[1] = Apparent pKa of ionizable lipid in LNP by TNS fluorescence; details: pH 3, probe TNS (2-(p-toluidino)-6-naphthalene sulfonic acid)
Protocol: (§1) Using 1 M sodium hydroxide and 1 M hydrochloric acid, ˜20 unique buffers from the master buffer stock are prepared at different pH values between about 3 and 12. 300 mM 6-(p-Toluidino)-2-naphthalenesulfonic acid sodium salt (TNS reagent) solubilized in dimethyl sulfoxide (DMSO) is used as a stock. LNP are prepared and purified into the desired pH buffer with a final mRNA concentration of 0.04 mg/mL. Using a 96-well plate, preloaded with desired buffers, mRNA containing LNP are added to so that the final concentration of mRNA is 0.7 μg/mL. To each well, TNS is added so that the DMSO concentration is 1% (v/v). After mixing, the fluorescence of TNS in each well is measured (Ex/Em 331 nm/445 nm) and a sigmoidal best fit analysis is applied to the fluorescence data. The pKa is determined as the pH giving rise to half-maximal fluorescence intensity.

[2] = Accelerated oxidation of ICLs with H2O2/Fe(III)Cl, UHPLC-CAD; format: physicochemical; details: for % of parent lipid peak at time 0, 24 h / % of parent lipid peak at time 0, 48 h / % of parent lipid peak at time 0, 72 h: Table 14, ICL lipid suspensions, 1% H2O2/100 μM Fe(III)Cl, 37° C.; for degradation: after 48 hours of incubation with hydrogen peroxide
Protocol: Individual lipid stocks (10 mM) were prepared in ethanol and stored at −20° C. […] Liposomal formulations based on AKG-UO-1 and O-11769 ionizable cationic lipids (Table 12) were prepared by combining lipid mixtures of desired composition in 1 mL ethanol with 3 mL 6.25 mM sodium acetate, pH 5.0 at 6 mL/min on a NanoAssemblr (Precision Nanosystems). 3.6 mL of the mixture was retained, while the initial 0.35 mL of the mixture and final 0.05 mL were discarded. Ethanol was removed by buffer exchange into PBS, pH 7.4 by concentrating each liposome preparation using an Aminon-Ultra 4 centrifugal concentrator at 500 g for 10 min at 4° C. and diluting back to the original volume with PBS. This cycle was repeated multiple times until the ethanol concentration was <1%. Finally, liposomes were sterile filtered through 0.2 μm PES (Nalgene) syringe filters and size measured by a ZetaSizer (Malvern).
Aliquots of the liposomal formulations were stored at −80° C. and thawed before the experiment. A combined stock in water of 10% H2O2 (Sigma-Aldrich, cat #H1009) and 1 mM of Fe(III)Cl (Sigma-Aldrich, cat #372870) was freshly prepared prior to the treatment. To make 1% final concentration of H2O2 and 100 μM Fe(III)Cl, 10 μl of 10% H2O2/1 mM Fe(III)Cl stock was added to 90 μl of both liposomal formulations and individual lipids The liposomes and individual lipids were incubated with H2O2/Fe(III)Cl at 37° C. and then 5 μl from each sample was taken at different time points (0, 3, 24, 48 and 72 hours) and dissolved in 90 μl of MeOH for HPLC analysis. Degradation of the main lipid peak was analyzed using Thermo Scientific Vanquish Flex UHPLC occupied with Charged Aerosol Detector (CAD) and Thermo Scientific Accucore™ C18+ UHPLC column (L=50 mm, D=2.1 mm, Particle Size=1.5 μm).
The data are presented as a percentage of the main lipid peak measured at different time points relative to the lipid peak measured at time zero.

physchem = details: pH 3
Protocol: as §1

## CCC/C=C\CCCC/C=C\CCCCC(=O)OC[C@H](CCN(C)C)OC(=O)CCCC/C=C\CCCC/C=C\CCC [Compound 23]
[1]
  pKa: 6 to 7

## CCCCCCCC/C=C\CCSSCCCC(=O)OC[C@H](CCN(C)C)OC(=O)CCCSSCC/C=C\CCCCCCCC [Compound 33]
[1]
  pKa: 6 to 7

## CC/C=C\CCCC/C=C\CCCCCCCCC(CCCCCCCC/C=C\CCCC/C=C\CC)OC(=O)CCCN(C)C [Compound 10]
[1]
  pKa: 6 to 7

## CCC/C=C\CCCC/C=C\CCCCC(=O)OC[C@H](COP(=O)(OC)OCCCN(CC)CC)OC(=O)CCCC/C=C\CCCC/C=C\CCC (stereo partly drawn) [Compound 27]
[1]
  pKa: 6 to 7

## CCCCC/C=C\CCCC/C=C\CCCCCC(CCCCC/C=C\CCCC/C=C\CCCCC)OC(=O)CCCN(CC)CC [Compound 11]
[1]
  pKa: 6 to 7

## CCCCC/C=C\CCCC/C=C\CCCCCC1(CCCCC/C=C\CCCC/C=C\CCCCC)OC[C@H](CCCN(C)C)O1 [KC3-01, 3-((S)-2,2-di((6Z,12Z)-octadeca-6,12-dien-1-yl)-1,3-dioxolan-4-yl)-N,N-dimethylpropan-1-amine]
[2]
  % of parent lipid peak at time 0, 24 h: 83 ± 4.3%
  % of parent lipid peak at time 0, 48 h: 80 ± 0.4%
  % of parent lipid peak at time 0, 72 h: 74 ± 2.2%

## CCC/C=C\CCCC/C=C\CCCCCC1(CCCCC/C=C\CCCC/C=C\CCC)OCC(CCN(C)C)O1 (stereo not drawn) [Compound 5]
[1]
  pKa: 6 to 7

## CC/C=C\CCCC/C=C\CCCCCCCC(=O)OC[C@H](COP(=O)(OC)OCCCN(C)C)OC(=O)CCCCCCC/C=C\CCCC/C=C\CC (stereo partly drawn) [Compound 20]
[1]
  pKa: 6 to 7

## CC/C=C\CCCC/C=C\CCCCCCCCC1(CCCCCCCC/C=C\CCCC/C=C\CC)OCC(CCN(C)C)O1 (stereo not drawn) [Compound 2]
[1]
  pKa: 6 to 7

## CCCCC/C=C\CCCC/C=C\CCCCC(=O)OC[C@H](CCN(C)C)OC(=O)CCCC/C=C\CCCC/C=C\CCCCC [UO-1]
[2]
  % of parent lipid peak at time 0, 24 h: 78 ± 0.6%
  % of parent lipid peak at time 0, 48 h: 74 ± 0.1%
  % of parent lipid peak at time 0, 72 h: 65 ± 2.5%

## CC(C)CCC[C@@H](C)[C@H]1CCC2[C@@H]3CC=C4CC(SSCCCCN(C)C)CC[C@]4(C)[C@H]3CC[C@@]21C (stereo partly drawn) [Compound 36]
physchem
  pKa: 6 to 7

## CCCCC/C=C\CCCC/C=C\CCCCCC1(CCCCC/C=C\CCCC/C=C\CCCCC)OC[C@H](CCN(C)C)O1 [KC2-01, 2-((S)-2,2-di((6Z,12Z)-octadeca-6,12-dien-1-yl)-1,3-dioxolan-4-yl)-N,N-dimethylethan-1-amine]
[2]
  % of parent lipid peak at time 0, 24 h: 91 ± 0.3%
  % of parent lipid peak at time 0, 48 h: 87 ± 0.9%
  % of parent lipid peak at time 0, 72 h: 83 ± 0.3%

## CCC/C=C\CCCC/C=C\CCCCCC(CCCCC/C=C\CCCC/C=C\CCC)OC(=O)CCCN(CC)CC [Compound 16]
[1]
  pKa: 6 to 7

## CC/C=C\CCCC/C=C\CCCCCCCC(=O)OC[C@H](CCCN(C)C)OC(=O)CCCCCCC/C=C\CCCC/C=C\CC [Compound 18]
[1]
  pKa: 6 to 7

## CCCCC/C=C\C/C=C\CCCCCCCCC1(CCCCCCCC/C=C\C/C=C\CCCCC)OCC(CCN(C)C)O1 (stereo not drawn) [KC2, DLin-KC2-DMA]
[2]
  % of parent lipid peak at time 0, 24 h: 35 ± 0.7%
  % of parent lipid peak at time 0, 48 h: 6 ± 1.9%
  % of parent lipid peak at time 0, 72 h: 0 ± 0.0%
  degradation: fully degraded

## CCCCC/C=C\CCCC/C=C\CCCCCC1(CCCCC/C=C\CCCC/C=C\CCCCC)OCC(CCN(C)C)O1 (stereo not drawn) [Compound 1]
[1]
  pKa: 6 to 7

## CCCCCC/C=C\CCCCCCCCC(CCCCCCCC/C=C\CCCCCC)OC(=O)CCCN(C)C [Compound 13]
[1]
  pKa: 6 to 7

## CCCCC/C=C\CCCC/C=C\CCCCCC1(CCCCC/C=C\CCCC/C=C\CCCCC)OCC(CCN(CC)CC)O1 (stereo not drawn) [Compound 6]
[1]
  pKa: 6 to 7

## CCCCCC/C=C\CCSSCCCCC(CCCCSSCC/C=C\CCCCCC)OC(=O)CCCN(C)C [Compound 32]
[1]
  pKa: 6 to 7

## CCCCC/C=C\CCCC/C=C\CCCCCC1(CCCCC/C=C\CCCC/C=C\CCCCC)OCC(CCCN(C)C)O1 (stereo not drawn) [Compound 3]
[1]
  pKa: 6 to 7

## CCC/C=C\CCCC/C=C\CCCCCC1(CCCCC/C=C\CCCC/C=C\CCC)OCC(CCCN(C)C)O1 (stereo not drawn) [Compound 8]
[1]
  pKa: 6 to 7

## CCC/C=C\CCCC/C=C\CCCCCC(CCCCC/C=C\CCCC/C=C\CCC)OC(=O)CCCN(C)C [Compound 14]
[1]
  pKa: 6 to 7

## CCC/C=C\CCCC/C=C\CCCCC(=O)OC[C@H](CCN(CC)CC)OC(=O)CCCC/C=C\CCCC/C=C\CCC [Compound 24]
[1]
  pKa: 6 to 7

## CCCCC/C=C\C/C=C\CCCCCCCCC1(CCCCCCCC/C=C\C/C=C\CCCCC)OCC(CCCN(C)C)O1 (stereo not drawn) [KC3, Dlin-KC3-DMA]
[2]
  % of parent lipid peak at time 0, 24 h: 46 ± 1.8%
  % of parent lipid peak at time 0, 48 h: 1 ± 0.2%
  % of parent lipid peak at time 0, 72 h: 0 ± 0.0%
  degradation: fully degraded

## CC/C=C\CCCC/C=C\CCCCCCCC(=O)OC[C@H](COP(=O)(OC)OCCCN(CC)CC)OC(=O)CCCCCCC/C=C\CCCC/C=C\CC (stereo partly drawn) [Compound 21]
[1]
  pKa: 6 to 7

## CCC/C=C\CCCC/C=C\CCCCCC(CCCCC/C=C\CCCC/C=C\CCC)OC(=O)CCCCN(C)C [Compound 15]
[1]
  pKa: 6 to 7

## CC/C=C\CCCC/C=C\CCCCCCCC(=O)OC[C@H](CCN(C)C)OC(=O)CCCCCCC/C=C\CCCC/C=C\CC [Compound 17]
[1]
  pKa: 6 to 7

## CCCCCCCC/C=C\CCSSCCCCC(CCCCSSCC/C=C\CCCCCCCC)OC(=O)CCCN(C)C [Compound 31]
[1]
  pKa: 6 to 7

## CCCCCC/C=C\CCSSCCCC(=O)OC[C@H](CCN(C)C)OC(=O)CCCSSCC/C=C\CCCCCC [Compound 34]
[1]
  pKa: 6 to 7

## CCCCCCCC/C=C\CCSSCCCCC1(CCCCSSCC/C=C\CCCCCCCC)OCC(CCN(C)C)O1 (stereo not drawn) [Compound 29]
[1]
  pKa: 6 to 7

## CCCCC/C=C\C/C=C\CCCCCCCC(=O)OC[C@H](CCN(C)C)OC(=O)CCCCCCC/C=C\C/C=C\CCCCC [Compound O-11769]
[2]
  % of parent lipid peak at time 0, 24 h: 31 ± 0.9%
  % of parent lipid peak at time 0, 48 h: 1 ± 0.2%
  % of parent lipid peak at time 0, 72 h: 0.3 ± 0.1%
  degradation: fully degraded

## CC/C=C\CCCC/C=C\CCCCCCCC(=O)OC[C@H](CCN(CC)CC)OC(=O)CCCCCCC/C=C\CCCC/C=C\CC [Compound 19]
[1]
  pKa: 6 to 7

## CCC/C=C\CCCC/C=C\CCCCC(=O)OC[C@H](COP(=O)(OC)OCCCCN(C)C)OC(=O)CCCC/C=C\CCCC/C=C\CCC (stereo partly drawn) [Compound 28]
[1]
  pKa: 6 to 7

## CCC/C=C\CCCC/C=C\CCCCC(=O)OC[C@H](CCCN(C)C)OC(=O)CCCC/C=C\CCCC/C=C\CCC [Compound 25]
[1]
  pKa: 6 to 7

## CCCCC/C=C\CCCC/C=C\CCCCCC(CCCCC/C=C\CCCC/C=C\CCCCC)OC(=O)CCCN(C)C [Compound 9]
[1]
  pKa: 6 to 7

## CCCCCC/C=C\CCCCCCCCC1(CCCCCCCC/C=C\CCCCCC)OCC(CCN(C)C)O1 (stereo not drawn) [Compound 4]
[1]
  pKa: 6 to 7

## CC(C)CCC[C@@H](C)[C@H]1CCC2[C@@H]3CC=C4CC(SSCCCN(C)C)CC[C@]4(C)[C@H]3CC[C@@]21C (stereo partly drawn) [Compound 35]
physchem
  pKa: 6 to 7

## CCC/C=C\CCCC/C=C\CCCCC(=O)OC[C@H](COP(=O)(OC)OCCCN(C)C)OC(=O)CCCC/C=C\CCCC/C=C\CCC (stereo partly drawn) [Compound 26]
[1]
  pKa: 6 to 7

## CC/C=C\CCCC/C=C\CCCCCCCC(=O)OC[C@H](COP(=O)(OC)OCCCCN(C)C)OC(=O)CCCCCCC/C=C\CCCC/C=C\CC (stereo partly drawn) [Compound 22]
[1]
  pKa: 6 to 7

## CCCCC/C=C\CCCC/C=C\CCCCCC(CCCCC/C=C\CCCC/C=C\CCCCC)OC(=O)CCCCN(C)C [Compound 12]
[1]
  pKa: 6 to 7

## CCCCCC/C=C\CCSSCCCCC1(CCCCSSCC/C=C\CCCCCC)OCC(CCN(C)C)O1 (stereo not drawn) [Compound 30]
[1]
  pKa: 6 to 7

## CCC/C=C\CCCC/C=C\CCCCCC1(CCCCC/C=C\CCCC/C=C\CCC)OCC(CCN(CC)CC)O1 (stereo not drawn) [Compound 7]
[1]
  pKa: 6 to 7
